From patent US20250098720A1, “SWEETENER COMPOSITIONS” (Firmenich SA, priority 2022, published 2025)

How the values were obtained:
[1] = Sensory experiment, trained panel, sweet-sour base (inverted sugar 7% and citric acid 0.15%); format: in vivo, human; conditions: 10 ppm compound in sweet-sour base of inverted sugar 7% and citric acid 0.15%
Description: (§1) Methodology: compounds 101 and 108 were evaluated as sweet modifiers in a sweet (water solution containing sucrose at 4%) or a sweet-sour base (mixture of inverted sugar and citric acid at 7% and 0.15%) at 10 ppm. Twenty trained panelists were asked to compare the intensity difference between reference and compound 101 or compound 108. The taste properties (such as sweet, sour) were evaluated on a scale of −5 to 5 (−5 denoted strong masking effect and 5 denoted strong enhancing effect, 0 being the intensity of reference.

[2] = Sensory experiment, trained panel, sweet base (water solution containing sucrose at 4%); format: in vivo, human; conditions: 10 ppm compound in 4% sucrose base; twenty trained panelists
Description: as §1

[3] = pH value of the sweet-sour base with compound; format: physicochemical; conditions: 10 ppm compound in sweet-sour base of inverted sugar and citric acid

| Structure (SMILES) | sour intensity versus reference (scale -5 to 5) [1] | sweet intensity versus reference (scale -5 to 5) [1] | sweet intensity versus reference (scale -5 to 5) [2] | pH value of the base [3] |
| --- | --- | --- | --- | --- |
| COc1cc(O)c(C(=O)CCc2ccc(O)cc2)c(O)c1C [compound 101] | significantly increase | significantly increase | can increase sweet intensity | without changing the pH value |
| O=C1CC(c2ccc(O)cc2)c2c(cc(O)c(C(=O)CCc3ccc(O)cc3)c2O)O1 (centres unmarked) [compound 108] | – | – | can increase sweet intensity | – |
